Measurements: PubChem BioAssay AID1845197 (Molecular Pharmacology Branch, DTP, NCI, 2023)

Tested on: 349418-098-R tumor spheroid viability
Assay: Anticancer human tumor 349418-098-R patient-derived lung adenocarcinoma cell line growth inhibition
Settings: spheroids with HUVEC and MSC; for IC50: curve of first compound; for viability, T/C: stronger effect = lower value
In short: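 Single agents and combinations were tested on spheroids built from tumor cells plus HUVEC and hMSC, at half-log dilutions starting at or near clinical Cmax, else 10 microM; final DMSO 0.25% (v/v).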

[1] = second compound 30 pM, first compound 0.0316 µM
[2] = second compound 30 pM, first compound 0.1 µM
[3] = second compound 30 pM, first compound 0.316 µM
[4] = second compound 30 pM, first compound 1 µM
[5] = second compound 30 pM, first compound 3.16 µM
[6] = second compound 30 pM, first compound 10 µM
[7] = second compound 94.9 pM, first compound 0.0316 µM
[8] = second compound 94.9 pM, first compound 0.1 µM
[9] = second compound 94.9 pM, first compound 0.316 µM
[10] = second compound 94.9 pM, first compound 1 µM
[11] = second compound 94.9 pM, first compound 3.16 µM
[12] = second compound 94.9 pM, first compound 10 µM
[13] = second compound 0.0003 µM, first compound 0.0316 µM
[14] = second compound 0.0003 µM, first compound 0.1 µM
[15] = second compound 0.0003 µM, first compound 0.316 µM
[16] = second compound 0.0003 µM, first compound 1 µM
[17] = second compound 0.0003 µM, first compound 3.16 µM
[18] = second compound 0.0003 µM, first compound 10 µM
[19] = second compound 0.000949 µM, first compound 0.0316 µM
[20] = second compound 0.000949 µM, first compound 0.1 µM
[21] = second compound 0.000949 µM, first compound 0.316 µM
[22] = second compound 0.000949 µM, first compound 1 µM
[23] = second compound 0.000949 µM, first compound 3.16 µM
[24] = second compound 0.000949 µM, first compound 10 µM
[25] = second compound 0.003 µM, first compound 0.0316 µM
[26] = second compound 0.003 µM, first compound 0.1 µM
[27] = second compound 0.003 µM, first compound 0.316 µM
[28] = second compound 0.003 µM, first compound 1 µM
[29] = second compound 0.003 µM, first compound 3.16 µM
[30] = second compound 0.003 µM, first compound 10 µM
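Note: spheroids exposed to compound for 7 days before measurement.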
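Throughout, for viability, T/C: percent of vehicle control viability with 100% = DMSO-treated spheroids.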

| Compound | IC50 (second compound 30 pM) [µM] | IC50 (second compound 94.9 pM) [µM] | IC50 (second compound 0.0003 µM) [µM] | IC50 (second compound 0.000949 µM) [µM] | IC50 (second compound 0.003 µM) [µM] | viability, T/C [1] [%] | viability, T/C [2] [%] | viability, T/C [3] [%] | viability, T/C [4] [%] | viability, T/C [5] [%] | viability, T/C [6] [%] | viability, T/C [7] [%] | viability, T/C [8] [%] | viability, T/C [9] [%] | viability, T/C [10] [%] | viability, T/C [11] [%] | viability, T/C [12] [%] | viability, T/C [13] [%] | viability, T/C [14] [%] | viability, T/C [15] [%] | also measured |
| --- | --- | --- | --- | --- | --- | --- | --- | --- | --- | --- | --- | --- | --- | --- | --- | --- | --- | --- | --- | --- | --- |
| CC(C)n1c(=O)n(C)c2cnc3cc(F)c(-c4ccc(OCCCN5CCCCC5)nc4)cc3c21 + COc1cc2c(cc1O)CCNC21CSC2c3c(OC(C)=O)c(C)c4c(c3C(COC1=O)N1C(O)C3Cc5cc(C)c(OC)c(O)c5C(C21)N3C)OCO4 | > 10 | > 10 | < 0.0316 | < 0.0316 | < 0.0316 | 91.8 | 97.4 | 106 | 99.6 | 98.4 | 77.7 | 91.5 | 85 | 93 | 92.7 | 94.6 | 60.2 | 40.2 | 37 | 31.7 | viability, T/C [16]: 32.1%; viability, T/C [17]: 45.2%; viability, T/C [18]: 22.1%; viability, T/C [19]: 0.4%; viability, T/C [20]: 0.3%; viability, T/C [21]: 0.49%; viability, T/C [22]: 1.21%; viability, T/C [23]: 1.2%; viability, T/C [24]: 0.62%; viability, T/C [25]: 1.38%; viability, T/C [26]: 1.4%; viability, T/C [27]: 1.38%; viability, T/C [28]: 1.37%; viability, T/C [29]: 1.41%; viability, T/C [30]: 1.51% |
| CC1COCCN1c1cc(-c2ccnn2C)c2ccnc(-c3ccn[nH]3)c2n1 (stereo not given) + COc1cc2c(cc1O)CCNC21CSC2c3c(OC(C)=O)c(C)c4c(c3C(COC1=O)N1C(O)C3Cc5cc(C)c(OC)c(O)c5C(C21)N3C)OCO4 | 0.0631 | 0.0365 | < 0.0316 | < 0.0316 | < 0.0316 | 88.5 | 24.3 | 13.4 | 12.1 | 12.2 | 11.8 | 54.9 | 16.2 | 9.93 | 10.6 | 12.4 | 10.6 | 12 | 4.5 | 5.77 | viability, T/C [16]: 6.89%; viability, T/C [17]: 7.2%; viability, T/C [18]: 7.37%; viability, T/C [19]: 0.38%; viability, T/C [20]: 0.68%; viability, T/C [21]: 0.46%; viability, T/C [22]: 0.39%; viability, T/C [23]: 0.25%; viability, T/C [24]: 0.23%; viability, T/C [25]: 1.52%; viability, T/C [26]: 1.22%; viability, T/C [27]: 1.66%; viability, T/C [28]: 1.39%; viability, T/C [29]: 1.43%; viability, T/C [30]: 1.5% |
| COc1cc(C)[nH]c(=O)c1CN1CCc2c(Cl)cc(C(OC)C3COC3)c(Cl)c2C1=O (stereo not given) + COc1cc2c(cc1O)CCNC21CSC2c3c(OC(C)=O)c(C)c4c(c3C(COC1=O)N1C(O)C3Cc5cc(C)c(OC)c(O)c5C(C21)N3C)OCO4 | > 10 | > 10 | > 10 | < 0.0316 | < 0.0316 | 112 | 106 | 96.1 | 97.2 | 94.2 | 93.3 | 112 | 111 | 102 | 99.2 | 90.8 | 95.8 | 95.4 | 85.8 | 84.3 | viability, T/C [16]: 79.9%; viability, T/C [17]: 64%; viability, T/C [18]: 53.1%; viability, T/C [19]: 0.28%; viability, T/C [20]: 0.39%; viability, T/C [21]: 0.45%; viability, T/C [22]: 0.46%; viability, T/C [23]: 0.29%; viability, T/C [24]: 0.33%; viability, T/C [25]: 1.45%; viability, T/C [26]: 1.46%; viability, T/C [27]: 1.03%; viability, T/C [28]: 1.48%; viability, T/C [29]: 1.6%; viability, T/C [30]: 2.3% |
| COc1ccc([C@@H](O)c2cc(-c3ncnc4cc(N5CCOCC5)ccc34)c(F)cc2Cl)nn1 + COc1cc2c(cc1O)CCNC21CSC2c3c(OC(C)=O)c(C)c4c(c3C(COC1=O)N1C(O)C3Cc5cc(C)c(OC)c(O)c5C(C21)N3C)OCO4 | 5.96 | 3.85 | 0.399 | < 0.0316 | < 0.0316 | 97.2 | 92.9 | 102 | 98.6 | 83.3 | 22.5 | 105 | 101 | 94.2 | 94.3 | 56.3 | 18.3 | 84.1 | 90.8 | 60 | viability, T/C [16]: 9.13%; viability, T/C [17]: 2.15%; viability, T/C [18]: 0.54%; viability, T/C [19]: 0.44%; viability, T/C [20]: 0.79%; viability, T/C [21]: 0.24%; viability, T/C [22]: 0.35%; viability, T/C [23]: 1.2%; viability, T/C [24]: 2.19%; viability, T/C [25]: 1.61%; viability, T/C [26]: 2.06%; viability, T/C [27]: 2.65%; viability, T/C [28]: 3.97%; viability, T/C [29]: 4.18%; viability, T/C [30]: 4.47% |
| Cc1cc(C)c(CNC(=O)c2cc(-c3ccc(CN4CCOCC4)cc3)cc3c2cnn3C2CCCC2)c(=O)[nH]1 + COc1cc2c(cc1O)CCNC21CSC2c3c(OC(C)=O)c(C)c4c(c3C(COC1=O)N1C(O)C3Cc5cc(C)c(OC)c(O)c5C(C21)N3C)OCO4 | > 10 | > 10 | > 10 | < 0.0316 | < 0.0316 | 103 | 97.3 | 105 | 119 | 114 | 104 | 104 | 97.9 | 102 | 118 | 115 | 77.7 | 98.4 | 90.4 | 98.1 | viability, T/C [16]: 100%; viability, T/C [17]: 98.6%; viability, T/C [18]: 72.6%; viability, T/C [19]: 0.39%; viability, T/C [20]: 0.81%; viability, T/C [21]: 0.5%; viability, T/C [22]: 0.48%; viability, T/C [23]: 0.45%; viability, T/C [24]: 0.53%; viability, T/C [25]: 1.51%; viability, T/C [26]: 1.6%; viability, T/C [27]: 1.61%; viability, T/C [28]: 1.74%; viability, T/C [29]: 2.05%; viability, T/C [30]: 0.75% |
| [2H]c1nc(C)nc([2H])c1-c1cc(NC[C@@H](C)c2cccc3c(C(=O)NC)ccnc23)ncn1 + COc1cc2c(cc1O)CCNC21CSC2c3c(OC(C)=O)c(C)c4c(c3C(COC1=O)N1C(O)C3Cc5cc(C)c(OC)c(O)c5C(C21)N3C)OCO4 | > 10 | > 10 | > 10 | < 0.0316 | < 0.0316 | 110 | 98.4 | 111 | 107 | 98.2 | 105 | 99 | 99.5 | 94.2 | 107 | 103 | 98.7 | 96.1 | 93.7 | 92.7 | viability, T/C [16]: 93.6%; viability, T/C [17]: 88%; viability, T/C [18]: 86.2%; viability, T/C [19]: 0.58%; viability, T/C [20]: 0.76%; viability, T/C [21]: 0.46%; viability, T/C [22]: 0.58%; viability, T/C [23]: 0.39%; viability, T/C [24]: 0.49%; viability, T/C [25]: 1.52%; viability, T/C [26]: 1.57%; viability, T/C [27]: 1.35%; viability, T/C [28]: 1.29%; viability, T/C [29]: 1.6%; viability, T/C [30]: 2.34% |
